From patent US12577255B2, “MDM2-based modulators of proteolysis and associated methods of use” (Arvinas Operations, Inc., priority 2015, dated 2026)

Target: T1, androgen receptor (AR) (Homo sapiens, UniProt P10275)
T1 construct: detects endogenous levels of total androgen receptor protein; host or cells: VCaP
T1 sequence (P10275 1-920): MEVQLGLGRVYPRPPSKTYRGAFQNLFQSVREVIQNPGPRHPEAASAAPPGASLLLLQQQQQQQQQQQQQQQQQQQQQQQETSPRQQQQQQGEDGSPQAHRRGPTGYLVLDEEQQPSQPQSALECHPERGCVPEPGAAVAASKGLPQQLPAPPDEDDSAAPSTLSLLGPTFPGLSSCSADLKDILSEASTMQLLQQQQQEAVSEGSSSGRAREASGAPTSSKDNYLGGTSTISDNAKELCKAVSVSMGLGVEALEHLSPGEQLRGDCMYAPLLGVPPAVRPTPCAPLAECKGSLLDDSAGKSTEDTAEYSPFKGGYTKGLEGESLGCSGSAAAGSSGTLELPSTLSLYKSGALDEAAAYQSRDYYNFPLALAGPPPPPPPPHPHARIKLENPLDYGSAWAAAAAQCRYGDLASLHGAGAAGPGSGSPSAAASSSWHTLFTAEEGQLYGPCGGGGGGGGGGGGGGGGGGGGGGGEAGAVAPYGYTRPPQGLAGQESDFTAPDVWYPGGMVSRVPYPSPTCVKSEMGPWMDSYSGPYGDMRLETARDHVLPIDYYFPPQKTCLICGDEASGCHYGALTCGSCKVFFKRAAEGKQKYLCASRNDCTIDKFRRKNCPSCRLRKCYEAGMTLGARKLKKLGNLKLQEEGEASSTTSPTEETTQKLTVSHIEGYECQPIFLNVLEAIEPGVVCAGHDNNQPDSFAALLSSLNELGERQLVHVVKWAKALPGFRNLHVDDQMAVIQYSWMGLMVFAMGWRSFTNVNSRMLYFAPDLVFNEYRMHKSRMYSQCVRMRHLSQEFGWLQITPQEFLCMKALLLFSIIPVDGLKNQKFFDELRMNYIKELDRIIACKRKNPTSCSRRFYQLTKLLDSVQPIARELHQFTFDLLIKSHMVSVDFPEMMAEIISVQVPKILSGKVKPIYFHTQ
Test: AR ELISA assay (degradation)
Format: cell-based
Details: VCaP cells, 16 h
Description: (§1) The following biological assays were performed to evaluate the protein degradation in various cell types using representative compounds disclosed. The degradation of the following proteins were evaluated: bromodomain-containing protein 4 (BRD4), androgen receptor (AR), c-Myc, c-Jun N-terminal kinases (JNK), and enhancer of zeste homolog 2 (EZH2).
VCaP cells were chased from ATCC and cultured in Dulbecco's Modified Eagle's Medium (ATCC), supplemented with 10% FBS (ATCC) and Penicillin/Streptomycin (Life Technologies). DMSO control and compound treatments (0.0001 μM to 1 μM) were performed in 96-well plates for 16 h. cells were harvested, and lysed with Cell Lysis Buffer (catalog #9803) (20 mM Tris-HCl, pH 7.5, 150 mM NaCl, 1 mM Na2EDTA, 1 mM EGTA, 1% Triton, 2.5 mM sodium pyrophosphate, 1 mM B-glycerophosphate, 1 mM Na3VO4, 1 μg/mL leupeptin. Lysates were clarified at 16,000 g for 10 minutes, and loaded into PathScan AR ELISA (Cell Signaling Catalog #12850). The PathScan Total Androgen Receptor Sanwich ELISA Kit is a solid phase sandwich enzyme-linked immunosorbent assay (ELISA) that detects endogenous levels of total androgen receptor protein. An Androgen Receptor Rabbit mAb has been coated onto the microwells. After incubation with cell lysates, androgen receptor protein is captured by the coated antibody. Following extensive washing, an Androgen receptor Mouse Detection mAbis added to detect the captured androgen receptor protein. Anti-mouse IgG, HRP-linked Antibody is then used to recognize the bound detection antibody. HRP substrate, TMB, is added to develop color. The magnitude of absorbance for the developed color is proportional to the quantity of total androgen receptor protein.

| AR degradation (%) at 1 µM | Structure (SMILES) |
| --- | --- |
| 0 to 25% | CC(C)(C)C[C@@H]1NC(C(=O)NCCOCCOc2ccc(C(=O)N[C@H]3C(C)(C)[C@H](Oc4ccc(C#N)c(Cl)c4)C3(C)C)cc2)[C@H](c2cccc(Cl)c2F)[C@@]1(C#N)c1ccc(Cl)cc1F (stereo partly drawn) [Compound A1571, 3-(3-chloro-2-fluorophenyl)-4-(4-chloro-2-fluorophenyl)-4-cyano-5-(2,2-dimethylpropyl)-N-{2-[2-(4-{[(1,3-trans)-3-(3-chloro-4-cyanophenoxy)-2,2,4,4-tetramethylcyclobutyl]carbamoyl}phenoxy)ethoxy]ethyl}pyrrolidine-2-carboxamide] |
| 0 to 25% | CC(C)(C)C[C@@H]1NC(C(=O)NCCOCCOCCOCCOc2ccc(C(=O)N[C@H]3C(C)(C)[C@H](Oc4ccc(C#N)c(Cl)c4)C3(C)C)cc2)[C@H](c2cccc(Cl)c2F)[C@@]1(C#N)c1ccc(Cl)cc1F (stereo partly drawn) [Compound A1603, 3-(3-chloro-2-fluorophenyl)-4-(4-chloro-2-fluorophenyl)-4-cyano-5-(2,2-dimethylpropyl)-N-[1-(4-{[(1,3-trans)-3-(3-chloro-4-cyanophenoxy)-2,2,4,4-tetramethylcyclobutyl]carbamoyl}phenyl)-1,4,7,10-tetraoxadodecan-12-yl]pyrrolidine-2-carboxamide] |
| 0 to 25% | CC(C)(C)C[C@@H]1NC(C(=O)NCCOCCOCCOc2ccc(C(=O)N[C@H]3C(C)(C)[C@H](Oc4ccc(C#N)c(Cl)c4)C3(C)C)cc2)[C@H](c2cccc(Cl)c2F)[C@@]1(C#N)c1ccc(Cl)cc1F (stereo partly drawn) [Compound A1621, 3-(3-chloro-2-fluorophenyl)-4-(4-chloro-2-fluorophenyl)-4-cyano-5-(2,2-dimethylpropyl)-N-(2-{2-[2-(4-{[(1,3-trans)-3-(3-chloro-4-cyanophenoxy)-2,2,4,4-tetramethylcyclobutyl]carbamoyl}phenoxy)ethoxy]ethoxy}ethyl)pyrrolidine-2-carboxamide] |

| Structure (SMILES) | AR degradation (%) at 1 µM |
| --- | --- |
| CCOc1cc(C(C)(C)C)ccc1C1=NC(C)(c2ccc(Cl)cc2)C(C)(c2ccc(Cl)cc2)N1C(=O)N1CCN(CCOCCOc2ccc(N3C(=S)N(c4ccc(C#N)c(C(F)(F)F)c4)C(=O)C3(C)C)cc2)CC1 (stereo not shown) [Compound A680, 4-(3-{4-[2-(2-{4-[2-(4-tert-butyl-2-ethoxyphenyl)-4,5-bis(4-chlorophenyl)-4,5-dimethyl-4,5-dihydro-1H-imidazole-1-carbonyl]piperazin-1-yl}ethoxy)ethoxy]phenyl}-4,4-dimethyl-5-oxo-2-sulfanylideneimidazolidin-1-yl)-2-(trifluoromethyl)benzonitrile] | 0 to 25% |
| CCOc1cc(C(C)(C)C)ccc1C1=NC(C)(c2ccc(Cl)cc2)C(C)(c2ccc(Cl)cc2)N1C(=O)N1CCN(CCOCCOCCOCCOCCOCCOc2ccc(N3C(=S)N(c4ccc(C#N)c(C(F)(F)F)c4)C(=O)C3(C)C)cc2)CC1 (stereo not shown) [Compound A702, 4-(3-{4-[(17-{4-[2-(4-tert-butyl-2-ethoxyphenyl)-4,5-bis(4-chlorophenyl)-4,5-dimethyl-4,5-dihydro-1H-imidazole-1-carbonyl]piperazin-1-yl}-3,6,9,12,15-pentaoxaheptadecan-1-yl)oxy]phenyl}-4,4-dimethyl-5-oxo-2-sulfanylideneimidazolidin-1-yl)-2-(trifluoromethyl)benzonitrile] | 25 to 50% |

Target: T2, bromodomain-containing protein 4 (BRD4) (Homo sapiens, UniProt O60885)
T2 construct: VCaP cells were chased from ATCC and cultured in Dulbecco's Modified Eagle's Medium; host or cells: VCaP
Test: BRD4 Western blot (degradation)
Format: cell-based
Details: at 1 μM; VCaP cells, 16 h
Description: as §1
VCaP cells were chased from ATCC and cultured in Dulbecco's Modified Eagle's Medium (ATCC), supplemented with 10% FBS (ATCC) and Penicillin/Streptomycin (Life Technologies). DMSO control and compound treatments (0.03 μM to 1 μM) were performed in 12-well plates for 16 h. cells were harvested, and lysed in RIPA buffer (50 mM Tris pH8, 150 mM NaCl, 1% Tx-100, 0.1% SDS, 0.5% sodium deoxycholate) supplemented with protease and phosphatase inhibitors. Lysates were clarified at 16,000 g for 10 minutes, and protein concentration was determined. Equal amount of protein (20 μg) was subjected to SDS-PAGE analysis and followed by immunoblotting according to standard protocols. The antibodies used were BRD4 (Cell signaling #13440), and Actin (Sigma #5441). Detection reagents were Clarity Western ELC substrate (Bio-rad #170-5060).

| Degradation activity BRD4 | Structure (SMILES) |
| --- | --- |
| C (larger than 50% degradation at 1 μM) | COc1cc(C(=O)NCCOCCNC(=O)C[C@@H]2N=C(c3ccc(Cl)cc3)c3c(sc(C)c3C)-n3c(C)nnc32)ccc1NC(=O)C1N[C@@H](CC(C)(C)C)[C@](C#N)(c2ccc(Cl)cc2F)[C@H]1c1cccc(Cl)c1F (stereo partly drawn) [Compound A1890, 3-(3-chloro-2-fluorophenyl)-4-(4-chloro-2-fluorophenyl)-N-(4-{[2-(2-{2-[(9S)-7-(4-chlorophenyl)-4,5,13-trimethyl-3-thia-1,8,11,12-tetraazatricyclo[8.3.0.0^2,^6]-trideca-2(6),4,7,10,12-pentaen-9-yl]acetamido}ethoxy)ethyl]carbamoyl}-2-methoxyphenyl)-4-cyano-5-(2,2-dimethylpropyl)pyrrolidine-2-carboxamide] |

Tested on: p53
Test: Western blot of HCT116 cells, p53 level
Format: cell-based, human
Details: Western blot (FIG. 2, FIG. 3)

| Structure (SMILES) | p53 level increase |
| --- | --- |
| COc1cc(C(=O)NCCOCCOCCOCCOCC(=O)N[C@H](C(=O)N2C[C@H](O)C[C@H]2C(=O)NCc2ccc(-c3scnc3C)cc2)C(C)(C)C)ccc1NC(=O)C1NC(CC(C)(C)C)C(C#N)(c2ccc(Cl)cc2F)C1c1cccc(Cl)c1F (mixture of isomers) [Compound A1895, 3-(3-chloro-2-fluorophenyl)-4-(4-chloro-2-fluorophenyl)-4-cyano-5-(2,2-dimethylpropyl)-N-{4-[(1-{[(2S)-1-[(2S,4R)-4-hydroxy-2-({[4-(4-methyl-1,3-thiazol-5-yl)phenyl]methyl}carbamoyl)pyrrolidin-1-yl]-3,3-dimethyl-1-oxobutan-2-yl]carbamoyl}-2,5,8,11-tetraoxatridecan-13-yl)carbamoyl]-2-methoxyphenyl}pyrrolidine-2-carboxamide] | dose dependent p53 level increase |
| COc1cc(C(=O)NCCOCCOCCOCCOCC(=O)N[C@H](C(=O)N2C[C@H](O)C[C@H]2C(=O)NCc2ccc(-c3scnc3C)cc2)C(C)(C)C)ccc1NC(=O)[C@@H]1N[C@@H](CC(C)(C)C)[C@](C#N)(c2ccc(Cl)cc2F)[C@H]1c1cccc(Cl)c1F (single isomer, unassigned) [Compound A1896] | dose dependent p53 level increase |
| COc1cc(C(=O)NCCOCCOCC(=O)N[C@H](C(=O)N2C[C@H](O)C[C@H]2C(=O)NCc2ccc(-c3scnc3C)cc2)C(C)(C)C)ccc1NC(=O)[C@@H]1N[C@@H](CC(C)(C)C)[C@](C#N)(c2ccc(Cl)cc2F)[C@H]1c1cccc(Cl)c1F [Compound A1907] | dose dependent p53 level increase |
| COc1cc(C(=O)NCCOCCOCCOCC(=O)N[C@H](C(=O)N2C[C@H](O)C[C@H]2C(=O)NCc2ccc(-c3scnc3C)cc2)C(C)(C)C)ccc1NC(=O)[C@@H]1N[C@@H](CC(C)(C)C)[C@](C#N)(c2ccc(Cl)cc2F)[C@H]1c1cccc(Cl)c1F [Compound A1910, (2R,3S,4R,5S)-3-(3-chloro-2-fluorophenyl)-4-(4-chloro-2-fluorophenyl)-4-cyano-5-(2,2-dimethylpropyl)-N-{4-[(2-{2-[2-({[(2S)-1-[(2S,4R)-4-hydroxy-2-({[4-(4-methyl-1,3-thiazol-5-yl)phenyl]methyl}-carbamoyl)pyrrolidin-1-yl]-3,3-dimethyl-1-oxobutan-2-yl]carbamoyl}methoxy)-ethoxy]ethoxy}ethyl)carbamoyl]-2-methoxyphenyl}pyrrolidine-2-carboxamide] | dose dependent p53 level increase |
